Data as given in publication PMC8546428, “Convergent olfactory trace amine-associated receptors detect biogenic polyamines with distinct motifs via a conserved binding site” (The Journal of Biological Chemistry, 2021).
Changes are numbered by the printed parent chain.

Legend:
[1] = target: T1, sTAAR365 T7.42A (Petromyzon marinus, UniProt A0A678XMK4, T298A); assay: cell-based
T1 sequence (A0A678XMK4 1-365 T298A): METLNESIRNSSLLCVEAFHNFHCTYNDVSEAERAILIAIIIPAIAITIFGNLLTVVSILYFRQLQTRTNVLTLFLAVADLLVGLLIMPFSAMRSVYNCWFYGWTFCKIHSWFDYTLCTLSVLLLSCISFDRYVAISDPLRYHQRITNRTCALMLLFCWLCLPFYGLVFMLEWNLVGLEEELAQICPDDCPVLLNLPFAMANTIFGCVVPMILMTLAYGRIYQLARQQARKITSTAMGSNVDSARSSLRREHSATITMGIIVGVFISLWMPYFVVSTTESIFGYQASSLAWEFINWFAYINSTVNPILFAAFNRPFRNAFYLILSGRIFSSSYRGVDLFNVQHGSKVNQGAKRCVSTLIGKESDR

[2] = target: T2, sTAAR365 Y6.51L (Petromyzon marinus, UniProt A0A678XMK4, Y272L); assay: cell-based
T2 sequence (A0A678XMK4 1-365 Y272L): T1 sequence (A0A678XMK4 1-365 T298A) with Y272L, A298T

[3] = target: sTAAR365 E7.36Q (Petromyzon marinus, UniProt A0A678XMK4, E292Q); assay: cell-based
[4] = target: T3, WT sTAAR365 (Petromyzon marinus, UniProt A0A678XMK4); assay: cAMP TR-FRET assay, wild-type sTAAR365 in HEK293T; assay type: cell-based, sea lamprey; details: for activation of sTAAR365 (cAMP accumulation): ligand 1 mM, HEK293T, Fig. 2A
T3 sequence (A0A678XMK4 1-365): T1 sequence (A0A678XMK4 1-365 T298A) with A298T
Description: HEK293T cells were transfected with sea lamprey sTAAR365 for 24 h and assayed for Golf-mediated cAMP production with a TR-FRET assay at 30 min after ligand addition. Receptor activity was normalized to the cAMP level in buffer-treated cells (mean ± S.D., n = 3). A, HEK293T cells expressing sTAAR365 or mock plasmid were incubated with either vehicle or tested ligands (1 mM). […] B, concentration-dependent cAMP production of HEK293T cells expressing sTAAR365 stimulated with cadaverine, putrescine, and spermine.

[5] = target: sTAAR365 W7.40F (Petromyzon marinus, UniProt A0A678XMK4, W296F); assay: cell-based
[6] = target: sTAAR365 Y7.43L (Petromyzon marinus, UniProt A0A678XMK4, Y299L); assay: cell-based
[7] = target: T4, sTAAR365 D3.32E (Petromyzon marinus, UniProt A0A678XMK4, D114E)
T4 sequence (A0A678XMK4 1-365 D114E): T1 sequence (A0A678XMK4 1-365 T298A) with D114E, A298T

[8] = target: sTAAR365 Y7.43F (Petromyzon marinus, UniProt A0A678XMK4, Y299F); assay: cell-based
[9] = target: T5, sTAAR365 T7.42V (Petromyzon marinus, UniProt A0A678XMK4, T298V); assay: cell-based
T5 sequence (A0A678XMK4 1-365 T298V): T1 sequence (A0A678XMK4 1-365 T298A) with A298V

[10] = target: sTAAR365 T7.42S (Petromyzon marinus, UniProt A0A678XMK4, T298S); assay: cell-based
[11] = target: T4, sTAAR365 D3.32E; assay: cell-based

Sequence of sTAAR365 Y7.43L (A0A678XMK4 whole entry Y299L): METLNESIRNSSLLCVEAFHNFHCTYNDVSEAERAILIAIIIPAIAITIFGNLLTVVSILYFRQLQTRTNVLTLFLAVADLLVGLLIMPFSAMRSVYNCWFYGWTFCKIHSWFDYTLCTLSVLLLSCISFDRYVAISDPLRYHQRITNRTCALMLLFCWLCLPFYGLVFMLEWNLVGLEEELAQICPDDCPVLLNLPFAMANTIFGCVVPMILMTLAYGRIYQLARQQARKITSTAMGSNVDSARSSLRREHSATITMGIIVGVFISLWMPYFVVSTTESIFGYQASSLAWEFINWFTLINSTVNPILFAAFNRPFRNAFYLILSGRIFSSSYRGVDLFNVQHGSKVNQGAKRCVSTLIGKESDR
Sequence of sTAAR365 W7.40F (A0A678XMK4 whole entry W296F): as the sequence (A0A678XMK4 whole entry Y299L) above, with W296F, L299Y counted along it
Sequence of sTAAR365 Y7.43F (A0A678XMK4 whole entry Y299F): as the sequence (A0A678XMK4 whole entry Y299L) above, with L299F counted along it
Sequence of sTAAR365 T7.42S (A0A678XMK4 whole entry T298S): as the sequence (A0A678XMK4 whole entry Y299L) above, with T298S, L299Y counted along it
Sequence of sTAAR365 E7.36Q (A0A678XMK4 whole entry E292Q): as the sequence (A0A678XMK4 whole entry Y299L) above, with E292Q, L299Y counted along it

SMILES | EC50 [1] | EC50 [2] | EC50 [3] | EC50 [4] | difference in potency, cadaverine vs putrescine ([4]; WT sTAAR365) | response threshold ([4]; WT sTAAR365, cAMP production) | activation of sTAAR365 (cAMP accumulation) [4] | EC50 [5] | EC50 [6] | Hill slope of concentration-response curve [7] | increase of EC50 vs wild-type sTAAR365 [7] | EC50 [8] | EC50 [9] | EC50 [10] | EC50 [11] | maximal response (Emax) relative to cadaverine/putrescine ([4]; WT sTAAR365, cAMP production)
NCCCCCN [cadaverine] | 31 ± 24 µM | > 100 µM | 0.06 ± 0.011 µM | 0.004 µM | 1000 fold | ~100 pM | activated | 0.223 ± 0.037 µM | 1 ± 0.2 µM | 1.44 | three | 2 ± 0.2 µM | 9 ± 2 µM | 0.126 ± 0.013 µM | 14 ± 0.5 µM | 
NCCCCN [putrescine] | > 500 µM |  |  | 56 µM |  |  | activated | > 500 µM | > 1000 µM |  | one | > 1000 µM | > 500 µM |  | > 500 µM | 
NCCCNCCCCNCCCN [spermine] |  | > 500 µM | > 500 µM | 28 µM |  |  | activated |  |  |  |  |  |  | 64 ± 7 µM |  | one-third
